Tested on: TMD8-resistant cells
Test: CellTiter-Glo luminescent cell viability assay, TMD8-resistant versus TMD8-WT cells
Format: cell-based
Conditions: ABT-199 for 3 days

For CC1(C)CCC(CN2CCN(c3ccc(C(=O)NS(=O)(=O)c4ccc(NCC5CCOCC5)c([N+](=O)[O-])c4)c(Oc4cnc5[nH]ccc5c4)c3)CC2)=C(c2ccc(Cl)cc2)C1 [ABT-199], the “sensitivity to drug (effect on cell growth) compared to TMD8-WT cells” value was “more sensitive”.

Source: patent publication US20160032404A1, “BIOMARKERS FOR PREDICTING RESPONSE OF DLBCL TO TREATMENT WITH A BTK INHIBITOR” (Pharmacyclics LLC, priority 2014, published 2016)
